Data set [1] deals with T1, first bromodomain (BrD1) of human BRD4 (Homo sapiens, UniProt O60885).
T1 construct: the first bromodomain (BrD1) of human BRD4; poly-His (cleaved yes); made in house
The data set is described as follows: Fluorescence anisotropy binding assay (competition with FITC-labeled MS417 probe). The following applies: FITC-MS417 probe 80 nM, PBS pH 7.4, 1 hour, 25° C., read-out: BRD4_1 IC50. The essentials:
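Competitive fluorescence anisotropy in PBS pH 7.4: 80 nM FITC-MS417 probe, 0.25 to 1 μM tag-cleaved BrD1, titrated unlabeled ligand, 1 hour at 25° C. IC50 values were fitted and converted to Ki using a corrected Cheng-Prusoff equation assuming one-site competition.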
In general terms: Polarisation of emitted light reports the rotation of a fluorescent probe.

The test system of data set [2] is mRNA transcript levels of cytokines IL-6, IL-1β and TNFα in RAW264.7 cells. Briefly: LPS-induced transcriptional activation of cytokines in murine macrophage cells (quantitative PCR). In kind it is cell-based. The following applies: Mus musculus. How it is done:
LPS-Induced Transcriptional Activation of Cytokines in Murine Macrophage Cells RAW264.7 cells were cultivated with or without a treatment of the compounds as described above. Total RNA was isolated the cells using TRIzol reagent (Gibco, Grand Island, N.Y.) for homogenization. The concentration and integrity of RNA were determined by measuring absorbance at a 260 nm/280 nm ratio. Quantitative PCR was performed to determine the mRNA transcript levels of cytokines IL-6, IL-1β and TNFα with specific primers for these target genes. Each experiment was performed at least in triplicate, and plotted using Prim, and an IC50 value was calculated.

The test system of data set [3] is NO release in RAW264.7 cells. Briefly: LPS-stimulated nitric oxide (NO) release in murine macrophage RAW264.7 cells (Griess reaction). It counts as cell-based. The following applies: Mus musculus, read-out: IC50 in inhibition of LPS-induced NO release. The procedure: LPS-Stimulated Nitric Oxide (NO) Release in Murine Macrophage RAW264.7 Cells
RAW264.7 cells was cultivated in DMEM supplemented with 10% FBS at 37° C. in a humidified atmosphere of 5% CO2. Cells in 96-well plates (0.1 ml, 3×10^5 cells/ml) were treated with the test compounds. After 30 min, all supernatants were removed and cells were treated with LPS (1 μg/ml) and the test compounds. After 24 hours, the level of nitrite was measured using Griess reaction G2930 (Promega Corp., Madison, Wis.) [see Bredt and Snyder, Ann Rev Biochem 63, 175-195 (1994)]. The test compounds dissolved in DMSO were diluted with culture medium to concentrations from 0.28 to 50,000 nM. The final concentration of DMSO was adjusted to 0.05% (v/v). The nitrite production was measured by spectrophotometry at 520 nm using EnVison 2104 Multilabel Reader (PerkinElmer, Inc., Waltham, Mass.). Each experiment was performed at least in triplicate and plotted using Prism.
(In general: Griess reagent forms a coloured azo dye with nitrite.)

The target of another data set is T2, BRD4_2 (Homo sapiens, UniProt O60885).
T2 construct: contains two tandem bromodomains (BrD1 and BrD2)
Briefly: Fluorescence anisotropy binding assay (competition with FITC-labeled MS417 probe), BRD4_2. The following applies: FITC-MS417 probe 80 nM, PBS pH 7.4, 1 hour, 25° C.

[4] abbreviates: RAW264.7 cells, LPS, quantitative PCR of mRNA transcript levels, read-out: IC50 in inhibition of transcriptional activation of the cytokines IL-6, IL-1β and TNFα.
Setting [5] is: RAW264.7 cells, LPS 1 μg/ml, 24 hours, nitrite by Griess reaction.
The mark [6] stands for this setting: RAW264.7, read-out: IC50 in inhibition of transcriptional activation of the cytokines IL-6, IL-1β and TNFα.

Experimental findings from patent US9884806B2, “Cyclic vinylogous amides as bromodomain inhibitors” (ICAHN SCHOOL OF MEDICINE AT MOUNT SINAI, priority 2013, dated 2018) are described below.

By IC50 is commonly meant the midpoint of a concentration-inhibition curve. By melting point is commonly meant the temperature of the solid-liquid transition.

Each structure is given as a SMILES string. Where two headings read alike, the source gives them in different places.

Compound `CC1=C(Nc2cc(C(=O)O)ccc2Cl)CCCC1=O` [Example 01-36, 4-chloro-3((2-methyl-3-oxocyclohex-1-en-1-yl)amino)benzoic acid] gave a melting point of 232 to 235 °C. Moreover, the IC50 in data set [1] was above 10000 nM. The IC50 in data set [2] (setting [4]) was in the range of 100 to 5000 nM. Further, in data set [3] (setting [5]), the IC50 is 100 to 5000 nM. Besides, the IC50 on BRD4_2 is above 10000 nM.
As to `CC1=C(Nc2ccc(C(=O)Nc3cccc4ccccc34)cc2Cl)CCC1=O` [Example 04-15, 3-chloro-4-((2-methyl-3-oxocyclopent-1-en-1-yl)amino)-N-(naphthalen-1-yl)-benzamide], the IC50 in data set [1] was below 1000 nM; in data set [2] (setting [6]), 100 to 5000 nM; in data set [3] (RAW264.7, 24 h), 100 to 5000 nM; at BRD4_2 it was 1000 to 10000 nM.
With `COc1ccccc1NC(=O)c1ccc(NC2=C(C)C(=O)CC2)c(Cl)c1` [Example 04-17, 3-chloro-N-(2-methoxyphenyl)-4-((2-methyl-3-oxocyclopent-1-en-1-yl)amino)benzamide], the IC50 was below 1000 nM in data set [1], 100 to 5000 nM in data set [2] (setting [4]), 100 to 5000 nM in data set [3] (setting [5]) and 1000 to 10000 nM at BRD4_2.
In the case of `CC1=C(Nc2cc(C(=O)Nc3ccccc3C)ccc2Cl)CCC1=O` [Example 04-89, 4-chloro-3-((2-methyl-3-oxocyclopent-1-en-1-yl)amino)-N-(o-tolyl)benzamide], the IC50 was below 1000 nM in data set [1]; 100 to 5000 nM in data set [2] (setting [6]); 100 to 5000 nM in data set [3] (RAW264.7, 24 h); 1000 to 10000 nM on BRD4_2.
As for `CC1=C(Nc2cc(C(=O)Nc3ccccc3C)ccc2Cl)CCCC1=O` [Example 04-91, 4-chloro-3-((2-methyl-3-oxocyclohex-1-en-1-yl)amino)-N-(o-tolyl)benzamide], the 50% inhibitory concentration (IC50) in data set [1] was in the range of 1000 to 10000 nM; in data set [2] (setting [4]), 100 to 5000 nM; in data set [3] (setting [5]), 100 to 5000 nM; on BRD4_2 it was 1000 to 10000 nM.
Consider `COc1ccc(NC(=O)Cc2cccc(NC3=C(C)C(=O)CCC3)c2)cc1` [Example 04-98, N-(4-methoxyphenyl)-2-(3-((2-methyl-3-oxocyclohex-1-en-1-yl)amino)phenyl)-acetamide], for which the IC50 is above 10000 nM in data set [1]; 100 to 5000 nM in data set [2] (setting [6]); 100 to 5000 nM in data set [3] (RAW264.7, 24 h); above 10000 nM at BRD4_2.
With `CC1=C(Nc2ccc(C(=O)Nc3ccccc3C)cc2Cl)CCCC1=O` [Example 05-15, 3-chloro-4-((2-methyl-3-oxocyclohex-1-en-1-yl)amino)-N-(o-tolyl)benzamide], the IC50 is below 1000 nM in data set [1], 100 to 5000 nM in data set [2] (setting [4]), 100 to 5000 nM in data set [3] (setting [5]) and 1000 to 10000 nM on BRD4_2.
In turn, `CC1=C(Nc2cc(NCCc3ccccc3C)ccc2Cl)CCCC1=O` [Example 05-73, 3-((2-chloro-5-((2-methylphenethyl)amino)phenyl)amino)-2-methylcyclohex-2-enone] yielded a melting point of 85 to 87 °C. Also, in data set [1], the IC50 fell in the range of 1000 to 10000 nM. On BRD4_2, this compound displayed an IC50 of 1000 to 10000 nM.
Compound `CC1=C(Nc2cc(NCc3ccccc3F)ccc2Cl)CCCC1=O` [Example 05-74, 3-((2-chloro-5-((2-fluorobenzyl)amino)phenyl)amino)-2-methylcyclohex-2-enone] had a melting point of 103 to 105 °C. For the same compound, the IC50 in data set [1] was below 1000 nM. Besides, on BRD4_2, the IC50 was below 1000 nM.
`CC1=C(Nc2cc(NCc3cccc(F)c3C)ccc2Cl)CCCC1=O` [Example 05-75, 3-((2-chloro-5-((3-fluoro-2-methylbenzyl)amino)phenyl)amino)-2-methylcyclohex-2-enone] yielded a melting point of 160 to 162 °C. The 50% inhibitory concentration (IC50) in data set [1] is below 1000 nM. The compound also returned an IC50 at BRD4_2 of 1000 to 10000 nM.
The compound `CC1=C(Nc2ccc(NCc3ccccc3C)cc2Cl)CCCC1=O` [Example 05-76, 3-((2-chloro-4-((2-methylbenzyl)amino)phenyl)amino)-2-methylcyclohex-2-enone] yielded a melting point of 220 to 221 °C. The IC50 in data set [1] is 1000 to 10000 nM. Also, the IC50 at BRD4_2 is above 10000 nM.
`CC1=C(Nc2ccc(NCCc3ccccc3C)cc2Cl)CCCC1=O` [Example 05-77, 3-((2-chloro-4-((2-methylphenethyl)amino)phenyl)amino)-2-methyl-cyclohex-2-enone] gave a melting point of 160 to 162 °C. In data set [1], the IC50 was 1000 to 10000 nM. The same compound had an IC50 on BRD4_2 of 1000 to 10000 nM.
The compound `CC1=C(Nc2cccc(NCc3ccccc3C)c2Cl)CCCC1=O` [Example 05-78, 3-((2-chloro-3-((2-methylbenzyl)amino)phenyl)amino)-2-methylcyclohex-2-enone] returned a melting point of 132 to 135 °C. Also, the IC50 in data set [1] is below 1000 nM. The compound also registered an IC50 on BRD4_2 of 1000 to 10000 nM.
As for `CC1=C(Nc2cccc(NCCc3ccccc3C)c2Cl)CCCC1=O` [Example 05-79, 3-((2-chloro-3-((2-methylphenethyl)amino)phenyl)amino)-2-methylcyclohex-2-enone], the melting point fell in the range of 157 to 160 °C. In data set [1], the IC50 lay within 1000 to 10000 nM. Moreover, the IC50 on BRD4_2 was above 10000 nM.
In turn, `CC1=C(Nc2cc(Nc3ccccc3C)ccc2Cl)CCCC1=O` [Example 05-81, 3-((2-chloro-5-(o-tolylamino)phenyl)amino)-2-methylcyclohex-2-enone] yielded a melting point of 165 to 168 °C. The IC50 in data set [1] was below 1000 nM. Moreover, the IC50 at BRD4_2 lay in the range of 1000 to 10000 nM.
In the case of `CC1=C(Nc2ccc(Nc3ccccc3C)cc2Cl)CCCC1=O` [Example 05-82, 3-((2-chloro-4-(o-tolylamino)phenyl)amino)-2-methylcyclohex-2-enone], the melting point was 68 to 70 °C. Besides, the IC50 in data set [1] is below 1000 nM. The compound further yielded an IC50 on BRD4_2 above 10000 nM.
In the same order, the values of `CC1=C(Nc2cc(NC(=O)/C=C\C(=O)O)ccc2Cl)CCCC1=O` [Example 05-83, (Z)-4-((4-chloro-3-((2-methyl-3-oxocyclohex-1-en-1-yl)amino)phenyl)-amino)-4-oxobut-2-enoic acid] are 182 to 185 °C, 1000 to 10000 nM and above 10000 nM.
In the case of `CC1=C(Nc2ccc(NC(=O)/C=C\C(=O)O)cc2Cl)CCCC1=O` [Example 05-84, (Z)-4-((3-chloro-4-((2-methyl-3-oxocyclohex-1-en-1-yl)amino)phenyl)-amino)-4-oxobut-2-enoic acid], the melting point was in the range of 200 to 202 °C. The IC50 in data set [1] lay within 1000 to 10000 nM. Moreover, the IC50 at BRD4_2 was above 10000 nM.
Regarding `CC1=C(Nc2cccc(-c3cn(Cc4ccccc4)nn3)c2)CCC1=O` [Example 06-04, 3-((3-(1-benzyl-1H-1,2,3-triazol-4-yl)phenyl)amino)-2-methylcyclopent-2-enone], the IC50 in data set [1] is below 1000 nM; in data set [2] (setting [4]) it was 100 to 5000 nM; in data set [3] (setting [5]) it was 100 to 5000 nM; at BRD4_2, 1000 to 10000 nM.
